By pIC50 is commonly meant the negative decadic logarithm of the IC50, by convention in mol/L.

For this assay, the target named is T1, NLRP3 (Homo sapiens, UniProt Q96P20).
T1 construct: Seed THP-1 cells (25,000 cells/well) containing 1.0 μg/ml LPS in 40 μl of RPMI medium; host or cells: THP-1 cells
Nature of the assay: THP-1 cells pyroptosis assay. The assay is classed as cell-based. The conditions noted are these: LPS 1 μg/ml, compound 3 hrs, nigericin 5 μM 1 hr, resazurin readout. The procedure: THP-1 cells (ATCC #TIB-202) were grown in RPMI containing L-glutamine (Gibco #11835) supplemented with 1 mM sodium pyruvate (Sigma #S8636) and penicillin (100 units/ml)/streptomycin (0.1 mg/ml) (Sigma #P4333) in 10% Fetal Bovine Serum (FBS) (Sigma #F0804). The cells were routinely passaged and grown to confluency (10^6 cells/ml). On the day of the experiment, THP-1 cells were harvested and resuspended into RPMI medium (without FBS). The cells were then counted and viability (>90%) checked by Trypan blue (Sigma #T8154). Appropriate dilutions were made to give a concentration of 625,000 cells/ml. To this diluted cell solution was added LPS (Sigma #L4524) to give a 1 μg/ml Final Assay Concentration (FAC). 40 μl of the final preparation was aliquoted into each well of a 96-well plate. The plate thus prepared was used for compound screening.
The following method step-by-step assay was followed for compound screening. • 1. Seed THP-1 cells (25,000 cells/well) containing 1.0 μg/ml LPS in 40 μl of RPMI medium (without FBS) in 96-well, black walled, clear bottom cell culture plates coated with poly-D-lysine (VWR #734-0317) • 2. Add 5 μl compound (8 points half-log dilution, with 10 μM top dose) or vehicle (DMSO 0.1% FAC) to the appropriate wells • 3. Incubate for 3 hrs at 37° C., 5% CO2 • 4. Add 5 μl nigericin (Sigma #N7143) (FAC 5 μM) to all wells • 5. Incubate for 1 hr at 37° C., 5% CO2 • 6. At the end of the incubation period, spin plates at 300×g for 3 mins and remove supernatant • 7. Then add 50 μl of resazurin (Sigma #R7017)(FAC 100 μM resazurin in RPMI medium without FBS) and incubate plates for a further 1-2 hrs at 37° C. and 5% CO2 • 8. Plates were read in an Envision reader at Ex 560 nm and Em 590 nm • 9. IC50 data is fitted to a non-linear regression equation (log inhibitor vs response-variable slope 4-parameters) 96-well Plate Map

pIC50: −log10 of the molar value. Counter-ions that a name gives are not always drawn.

T1 sequence (Q96P20 whole entry): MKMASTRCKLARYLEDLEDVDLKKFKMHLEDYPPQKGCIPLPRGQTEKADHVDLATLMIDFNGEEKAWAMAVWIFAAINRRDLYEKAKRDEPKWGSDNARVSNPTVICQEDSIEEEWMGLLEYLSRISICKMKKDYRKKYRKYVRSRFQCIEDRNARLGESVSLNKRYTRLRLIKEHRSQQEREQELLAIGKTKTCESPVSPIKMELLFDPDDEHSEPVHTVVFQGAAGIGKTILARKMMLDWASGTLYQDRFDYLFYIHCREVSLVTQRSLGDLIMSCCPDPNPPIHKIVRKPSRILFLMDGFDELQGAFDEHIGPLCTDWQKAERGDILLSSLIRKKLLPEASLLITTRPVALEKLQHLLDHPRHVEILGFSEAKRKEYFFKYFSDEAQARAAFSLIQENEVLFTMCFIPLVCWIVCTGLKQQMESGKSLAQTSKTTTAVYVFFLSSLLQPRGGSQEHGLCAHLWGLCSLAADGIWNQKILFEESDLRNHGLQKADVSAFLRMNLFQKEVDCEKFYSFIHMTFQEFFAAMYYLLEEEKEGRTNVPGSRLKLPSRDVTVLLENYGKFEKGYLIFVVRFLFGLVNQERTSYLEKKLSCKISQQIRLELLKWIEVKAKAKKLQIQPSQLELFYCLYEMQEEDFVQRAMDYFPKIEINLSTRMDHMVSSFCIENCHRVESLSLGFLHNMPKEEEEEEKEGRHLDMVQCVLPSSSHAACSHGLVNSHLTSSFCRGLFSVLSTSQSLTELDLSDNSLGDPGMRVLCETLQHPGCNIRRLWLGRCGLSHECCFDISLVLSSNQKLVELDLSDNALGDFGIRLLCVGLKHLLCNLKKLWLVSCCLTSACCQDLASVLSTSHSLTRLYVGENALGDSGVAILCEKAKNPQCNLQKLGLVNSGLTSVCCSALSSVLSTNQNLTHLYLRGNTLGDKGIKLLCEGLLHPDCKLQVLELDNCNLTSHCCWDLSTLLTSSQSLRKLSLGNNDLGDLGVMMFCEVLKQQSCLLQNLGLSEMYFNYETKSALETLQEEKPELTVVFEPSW

In turn, `COC(=O)c1cc(S(=O)(=O)NC(=O)Cc2c(-c3ccnc(OC)c3)cc(F)cc2C(C)C)ccc1F` [Example 92, Methyl 2-fluoro-5-(N-(2-(4-fluoro-2-isopropyl-6-(2-methoxypyridin-4-yl)phenyl)acetyl)sulfamoyl)benzoate] gave a negative logarithm of the IC50 (pIC50) of at least 5.30. The same measure for `COc1cc(-c2cc(F)cc(C(C)C)c2CC(=O)NS(=O)(=O)c2cn(CC(F)F)nc2C)ccn1` [Example 169]: at least 5.30. The same measure for `COc1ccncc1-c1cc(F)cc(C(C)C)c1CC(=O)NS(=O)(=O)c1cc(C(C)C)c(F)cc1F` [Example 203]: at least 6.30; for `COc1cc(-c2cc(F)cc(C(C)C)c2CC(=O)NS(=O)(=O)c2ccc(C(C)(C)NC(C)=O)c(F)c2)ccn1` [Example 88, N-((4-(2-Acetamidopropan-2-yl)-3-fluorophenyl)sulfonyl)-2-(4-fluoro-2-isopropyl-6-(2-methoxypyridin-4-yl)phenyl)acetamide]: at least 5.30; for `COc1cc(-c2ccc3c(c2CC(=O)NS(=O)(=O)c2cc(C(C)(C)O)cs2)CCC3)ccn1` [Example 20, N-((4-(2-Hydroxypropan-2-yl)thiophen-2-yl)sulfonyl)-2-(5-(2-methoxypyridin-4-yl)-2,3-dihydro-1H-inden-4-yl)acetamide]: at least 6.00. `COc1cc(-c2ccc3c(c2CC(=O)NS(=O)(=O)c2cnc(C(C)(C)O)s2)CCC3)ccn1` [Example 107, N-((2-(2-Hydroxypropan-2-yl)thiazol-5-yl)sulfonyl)-2-(5-(2-methoxypyridin-4-yl)-2,3-dihydro-1H-inden-4-yl)acetamide] gave a pIC50 of at least 5.30.

`COc1cc(-c2cc(F)cc(C(C)C)c2CC(=O)NS(=O)(=O)c2ccc(F)c(C#N)c2)ccn1` [Example 34, N-((3-Cyano-4-fluorophenyl)sulfonyl)-2-(4-fluoro-2-isopropyl-6-(2-methoxypyridin-4-yl)phenyl)acetamide]: the pIC50 was at least 5.00. The same measure for `COc1cc(-c2cc(F)cc(C(C)(C)F)c2CC(=O)NS(=O)(=O)c2ccc(C(C)(C)O)cc2C)ccn1` [Example 86, 2-(4-Fluoro-2-(2-fluoropropan-2-yl)-6-(2-methoxypyridin-4-yl)phenyl)-N-((4-(2-hydroxypropan-2-yl)-2-methylphenyl)sulfonyl)acetamide]: at least 5.30. `COc1cc(-c2cc(F)cc(C(C)C)c2CC(=O)NS(=O)(=O)c2ccc(F)c(C(C)(C)O)c2)ccn1` [Example 79, 2-(4-Fluoro-2-isopropyl-6-(2-methoxypyridin-4-yl)phenyl)-N-((4-fluoro-3-(2-hydroxypropan-2-yl)phenyl)sulfonyl)acetamide] showed a pIC50 of at least 6.00. With `COc1cc(-c2cc(F)cc(C(C)C)c2CC(=O)NS(=O)(=O)c2ccc(-c3cnco3)s2)ccn1` [Example 127], the pIC50 is at least 5.30. Molecule `CC(C)c1cc(F)cc(-c2cccnc2)c1CC(=O)NS(=O)(=O)c1cnc(C(C)(C)O)s1` [Example 142] showed a pIC50 of at least 6.00.

Molecule `COc1cc(-c2cc(F)cc(C(C)C)c2CC(=O)NS(=O)(=O)c2c(C)nn(CC(F)(F)F)c2C)ccn1` [Example 168] showed a negative logarithm of the IC50 (pIC50) of at least 5.30. Take `CCN(CC)CCCS(=O)(=O)NC(=O)Cc1c(-c2ccnc(OC)c2)cc(F)cc1C(C)C` [Example 57, N-((3-(Diethylamino)propyl)sulfonyl)-2-(4-fluoro-2-isopropyl-6-(2-methoxypyridin-4-yl)phenyl)acetamide, potassium salt]: the negative-log IC50 (pIC50) is at least 5.30. The same measure for `COc1cc(-c2cc(F)cc(C(C)C)c2CC(=O)NS(=O)(=O)c2c(C)cc(N(C)C)cc2C)ccn1` [Example 146]: at least 5.00; for `COc1cc(-c2cc(F)cc(C(C)C)c2CC(=O)NS(=O)(=O)c2ccc(Br)cc2)ccn1` [Example 19]: at least 6.00; for `CC(C)c1cc(F)cc(-c2cccnc2)c1CC(=O)NS(=O)(=O)c1ccc(Cl)cc1` [Example 17]: at least 5.30. `COc1cc(-c2cc(F)cc(C(C)C)c2CC(=O)NS(=O)(=O)c2cnc3c(c2)c(C)nn3C)ccn1` [Example 94, N-((1,3-Dimethyl-1H-pyrazolo[3,4-b]pyridin-5-yl)sulfonyl)-2-(4-fluoro-2-isopropyl-6-(2-methoxypyridin-4-yl)phenyl)acetamide] showed a pIC50 of at least 6.00. The same measure for `COc1cc(-c2cc(F)cc(C(C)C)c2CC(=O)NS(=O)(=O)c2ccccc2)ccn1` [Example 111, 2-(4-Fluoro-2-isopropyl-6-(2-methoxypyridin-4-yl)phenyl)-N-(phenylsulfonyl)acetamide]: at least 5.30; for `COc1cc(-c2cc(F)cc(C(C)C)c2CC(=O)NS(=O)(=O)C[C@@]23CC[C@@H](C[C@H]2O)C3(C)C)ccn1` [Example 77, 2-(4-Fluoro-2-isopropyl-6-(2-methoxypyridin-4-yl)phenyl)-N-((((1R,2R,4S)-2-hydroxy-7,7-dimethylbicyclo[2.2.1]heptan-1-yl)methyl)sulfonyl)acetamide]: at least 5.30; for `COc1cc(-c2cc(F)cc(C(C)C)c2CC(=O)NS(=O)(=O)c2ccccc2Cl)ccn1` [Example 7]: at least 5.30. Turning to `COc1cccc(S(=O)(=O)NC(=O)Cc2c(-c3ccnc(OC)c3)cc(F)cc2C(C)C)c1` [Example 119], the pIC50 is at least 6.00. The molecule `COc1cc(-c2cc(F)cc(C(C)C)c2CC(=O)NS(=O)(=O)CC2(C#N)CCCCC2)ccn1` [Example 114] showed a pIC50 of at least 6.00.

In the case of `COc1cc(-c2cc(F)cc(C(C)C)c2CC(=O)NS(=O)(=O)c2cc(Br)c(F)cc2F)ccn1` [Example 166], the pIC50 was at least 6.30. The same measure for `COc1cc(-c2cc(F)cc(C(C)C)c2CC(=O)NS(=O)(=O)c2ccc(/C(C)=N\O)cc2)ccn1` [Example 132]: at least 5.30.

The molecule `COc1cc(-c2cc(F)cc(C(C)C)c2CC(=O)NS(=O)(=O)c2cc3ccccc3o2)ccn1` [Example 116] had a pIC50 of at least 6.00.

The molecule `CCC(O)(CC)c1cc(S(=O)(=O)NC(=O)Cc2c(-c3ccnc(OC)c3)cc(F)cc2C(C)C)sc1C` [Example 199] showed a pIC50 of at least 6.30. In turn, `COc1cc(-c2cc(F)cc(C(C)C)c2CC(=O)NS(=O)(=O)c2ccc(C(C)(C)C#N)cc2)ccn1` [Example 190] showed a pIC50 of at least 5.30.

Consider `COc1cc(-c2cc(F)cc(C(C)C)c2CC(=O)NS(=O)(=O)c2ccc(C(C)C)cn2)ccn1` [Example 185], for which the pIC50 was at least 6.30. In the case of `COc1cc(-c2cc(F)cc(C(C)C)c2CC(=O)NS(=O)(=O)c2cccc(CNC(C)=O)c2)ccn1` [Example 133], the negative logarithm of the IC50 (pIC50) was at least 5.30.

With `COc1cc(-c2cc(F)cc(C(C)C)c2CC(=O)NS(=O)(=O)c2ccc(C#N)cc2C)ccn1` [Example 37, N-((4-Cyano-2-methylphenyl)sulfonyl)-2-(4-fluoro-2-isopropyl-6-(2-methoxypyridin-4-yl)phenyl)acetamide], the negative-log IC50 (pIC50) is at least 5.30. The same measure for `CC(C)(O)c1csc(S(=O)(=O)NC(=O)Cc2c(-c3ccnc(C#N)c3)ccc3c2CCC3)c1` [Example 22, 2-(5-(2-Cyanopyridin-4-yl)-2,3-dihydro-1H-inden-4-yl)-N-((4-(2-hydroxypropan-2-yl)thiophen-2-yl)sulfonyl)acetamide]: at least 5.30.

For the molecule `COc1cc(-c2cc(F)cc(C(C)C)c2CC(=O)NS(=O)(=O)c2cc(C)c(C)s2)ccn1` [Example 121], the negative-log IC50 (pIC50) was at least 6.30. With `COc1cc(-c2cc(F)cc(C(C)C)c2CC(=O)NS(=O)(=O)c2cc(C(C)(C)OC)cs2)ccn1` [Example 144], the negative logarithm of the IC50 (pIC50) was at least 6.30. The same measure for `COc1cc(-c2cc(F)cc(C(C)C)c2CC(=O)NS(=O)(=O)c2cn(CC(C)C)nc2C)ccn1` [Example 208]: at least 5.30. The molecule `COc1cc(-c2cc(F)cc(C(C)C)c2CC(=O)NS(=O)(=O)c2cc(F)c(Br)cc2C)ccn1` [Example 139] showed a negative-log IC50 (pIC50) of at least 6.30. As to `COc1cc(-c2cc(F)cc(C(C)C)c2CC(=O)NS(=O)(=O)c2cc(C(C)(C)O)c(C)s2)ccn1` [Example 159], the pIC50 is at least 6.30. In the case of `COc1cc(-c2cc(F)cc(C(C)C)c2CC(=O)NS(=O)(=O)c2cccc(C(C)(C)O)c2)ccn1` [Example 89, 2-(4-Fluoro-2-isopropyl-6-(2-methoxypyridin-4-yl)phenyl)-N-((3-(2-hydroxypropan-2-yl)phenyl)sulfonyl)acetamide], the pIC50 is at least 6.00. The same measure for `CCc1cccc(S(=O)(=O)NC(=O)Cc2c(-c3ccnc(OC)c3)cc(F)cc2C(C)C)c1` [Example 117]: at least 6.30; for `COC(=O)c1ccc(S(=O)(=O)NC(=O)Cc2c(-c3ccnc(OC)c3)cc(F)cc2C(C)C)cc1Cl` [Example 9]: at least 5.30; for `CC(C)c1cc(S(=O)(=O)NC(=O)Cc2c(-c3cccnc3)cc(F)cc2C(C)C)c(F)cc1F` [Example 200]: at least 6.30.

These data come from patent publication US12030879B2, “Sulfonyl acetamides as NLRP3 inhibitors” (Inflazome Limited, priority 2018, dated 2024).
